{"source": "patent US4503147A", "about": "(priority 1981, dated 1985)", "note": "Structures can show the parent of a compound that is named as a salt."}
{"system": "monomethylamine-oxidizing enzyme", "experiment": "Substrate specificity and Km of the purified monomethylamine-oxidizing enzyme", "type": "biochemical, Bacillus sp. N - 104 (FERM BP-59)", "settings": "pH 9.0", "description": "(§1) […] To 1.0 ml of this substrate solution, is added 0.1 ml of an enzyme solution diluted with the same buffer solution and the mixture is subjected to reaction for 10 min. at 30° C. By adding 1 ml of 5N KOH solution, the enzymatic reaction is stopped. By this enzymatic reaction, monomethylamine is oxidatively decomposed to produce formaldehyde, ammonia and hydrogen peroxide. Then, to the reaction mixture is added 1 ml of 0.5 N hydrochloric acid solution containing 0.5% 4-amino-3-hydrazino-5-mercapto-1,2,4-triazole (to be abbreviated as AHMT hereinafter) and the mixture is subjected to reaction for 15 min. at 30° C. To the reaction mixture is added 1 ml of 0.2 N potassium hydroxide solution containing 0.75% KIO4 and the mixture is thoroughly stirred to develop a color. The colored solution is poured into a transparent cell and its absorption at 550 nm is measured to quantitatively determine the above produced formaldehyde.", "units": {"Km": "µM"}}
{"smiles": "CN", "note": "[Monomethylamine]", "Km": 62}
{"system": "monomethylamine-oxidizing enzyme", "experiment": "Substrate specificity and Km of the purified monomethylamine-oxidizing enzyme", "type": "biochemical, Bacillus sp. N - 104 (FERM BP-59)", "settings": "substrate concentration 10 mM; activity for monomethylamine taken as 100", "description": "as §1", "units": {"Relative activity": "%"}}
{"smiles": "CNC", "note": "[Dimethylamine]", "Relative activity": 0}
{"smiles": "NCCc1c[nH]cn1", "note": "[Histamine]", "Relative activity": 1}
{"smiles": "NCCN", "note": "[Ethylenediamine]", "Relative activity": 0}
{"smiles": "CCN", "note": "[Ethylamine]", "Relative activity": 90}
{"smiles": "CN", "note": "[Monomethylamine]", "Relative activity": 100}
{"smiles": "NCN", "note": "[Diaminomethane]", "Relative activity": 16}
{"smiles": "CCCCN", "note": "[n-Butylamine]", "Relative activity": 18}
{"smiles": "CC(C)N", "note": "[i-Propylamine]", "Relative activity": 0}
{"smiles": "NCCc1ccc(O)cc1", "note": "[Tyramine]", "Relative activity": 0}
{"smiles": "NO", "note": "[Hydroxylamine]", "Relative activity": 0}
{"smiles": "CC(C)CN", "note": "[i-Butylamine]", "Relative activity": 2}
{"smiles": "NCCO", "note": "[Ethanolamine]", "Relative activity": 1}
{"smiles": "N=C(N)NCCCCN", "note": "[Agmatine]", "Relative activity": 1}
{"smiles": "CCCCCN", "note": "[n-Amylamine]", "Relative activity": 19}
{"smiles": "NCCCCN", "note": "[Putrescine]", "Relative activity": 0}
{"smiles": "CCCCCCN", "note": "[n-Hexylamine]", "Relative activity": 10}
{"smiles": "NCc1ccccc1", "note": "[Benzylamine]", "Relative activity": 1}
{"smiles": "CCCN", "note": "[n-Propylamine]", "Relative activity": 60}
{"smiles": "CN(C)C", "note": "[Trimethylamine]", "Relative activity": 0}
{"system": "monomethylamine-oxidizing enzyme", "experiment": "not given", "type": "biochemical, Bacillus sp. N - 104 (FERM BP-59)", "settings": "1 mM inhibitor, 10 min treatment at 30° C., pH 9; activity without inhibitor taken as 100", "description": "(§2) Monomethylamine hydrochloride as substrate is dissolved into 0.1 M KH2 PO4 -Na2 B4 O7 buffer solution (pH 7) and the solution is ordinally adjusted to 1 mM concentration of substrate. To 1.0 ml of this substrate solution, is added 0.1 ml of an enzyme solution diluted with the same buffer solution and the mixture is subjected to reaction for 10 min. at 30° C. By adding 1 ml of 5N KOH solution, the enzymatic reaction is stopped. By this enzymatic reaction, monomethylamine is oxidatively decomposed to produce formaldehyde, ammonia and hydrogen peroxide. Then, to the reaction mixture is added 1 ml of 0.5 N hydrochloric acid solution containing 0.5% 4-amino-3-hydrazino-5-mercapto-1,2,4-triazole (to be abbreviated as AHMT hereinafter) and the mixture is subjected to reaction for 15 min. at 30° C. To the reaction mixture is added 1 ml of 0.2 N potassium hydroxide solution containing 0.75% KIO4 and the mixture is thoroughly stirred to develop a color. The colored solution is poured into a transparent cell and its absorption at 550 nm is measured to quantitatively determine the above produced formaldehyde.", "units": {"Residual activity": "%"}}
{"smiles": "NC(=O)CI", "note": "[iodoacetamide]", "Residual activity": 2.2}
{"smiles": "[Cl][Hg][Cl]", "note": "[HgCl2]", "Residual activity": 0}
{"smiles": "NNC(N)=O", "note": "[semicarbazide hydrochloride]", "Residual activity": 0}
{"smiles": "O=C(O)c1cc[c]([Hg][Cl])cc1", "note": "[p-chloromercuribenzoic acid]", "Residual activity": 0.7}
{"system": "monomethylamine-oxidizing enzyme", "experiment": "not given", "type": "biochemical, Bacillus sp. N - 104 (FERM BP-59)", "settings": "5 mM inhibitor, 10 min treatment at 30° C., pH 9; activity without inhibitor taken as 100", "description": "as §2", "units": {"Residual activity": "%"}}
{"smiles": "c1cnc2c(c1)ccc1cccnc12", "note": "[O-phenanthroline]", "Residual activity": 70.9}
{"smiles": "CCN(CC)C(=S)[S-].[Na+]", "note": "[sodium diethyldithiocarbamate]", "Residual activity": 59.3}
{"system": "monomethylamine-oxidizing enzyme", "experiment": "not given", "type": "biochemical, Bacillus sp. N - 104 (FERM BP-59)", "settings": "pH 9", "description": "as §2", "units": {"Residual activity": "%"}}
{"smiles": "Oc1cccc2cccnc12", "note": "[8-oxyquinoline]", "Residual activity": 34.0}
{"smiles": "O=C(O)CI", "note": "[monoiodoacetic acid]", "Residual activity": 34.0}
